Test results from patent US11819511B2, “Composition of N-palmitoyl-ethanolamide and Rutin in co-micronized form” (EPITECH GROUP S.P.A, priority 2019, dated 2023).

Experiments:
[1] = test system: thoracic aorta rings exposed to peroxynitrite; experiment: Ex vivo vascular reactivity: contraction of thoracic aorta rings from norepinephrine, after complete ligation of the left carotid artery and 14 days of treatment; format: in vivo, C57Bl/6 strain mice; details: aorta rings collected day 14, exposed to peroxynitrite 1 mM, per os once a day for 14 days
Experimental: (§1) (as described by Q.Xu “Mouse models of arteriosclerosis: from arterial injuries to vascular grafts” Am J Pathol. (2014); 165(1):1-10). […] Cuzzocrea et al “Superoxide: a key player in hypertension” FASEB J. […] In particular, the ex vivo measurement of vascular reactivity is carried out with the following procedures: Adult mice of the C57Bl/6 strain weighing 25-30 g are used (Envigo-Italy). The groups of animals on which the evaluations were carried out (10 animals per group) were the following: • Group 1—Animals treated per os with 10 mg/kg of co-micronized palmitoyl-ethanolamide: […] Rutin in a 1:1 ratio, suspended in 1% carboxymethylcellulose solution and with the addition of 0.5 mg/kg of pure hydroxytyrosol in the final solution. At the end of the treatments, the thoracic aortas of the animals are taken and adequately cleaned of the adherent peri-adventitious fat and 3-4 mm rings are cut out. The rings are placed in Krebs solution at pH 7.4 (Krebs solution composition: NaCl 118 mM; KCl 4.7 mM; KH2PO4 1.2 mM; CaCl2 2.5 mM; MgSO4 1.2 mM; NaHCO3 25 mM; glucose 11.7 mM). […] A voltage of 1 g is applied, and the Krebs solution is exchanged every 15 minutes. The aorta rings are exposed to a concentration of peroxynitrile 1 mM.

[2] = test system: thoracic aorta rings exposed to peroxynitrite; experiment: Ex vivo vascular reactivity: endothelium-dependent release of thoracic aorta rings from acetylcholine, after complete ligation of the left carotid artery and 14 days of treatment; format: in vivo, C57Bl/6 strain mice; details: aorta rings collected day 14, exposed to peroxynitrite 1 mM, per os once a day for 14 days
Experimental: as §1

[3] = Trolox equivalent; cited from earlier work

Structure (SMILES)	Contraction (g) from Norepinephrine ([1]; Norepinephrine 100 nM) [g]	Contraction (g) from Norepinephrine ([1]; Norepinephrine 1,000 nM) [g]	Contraction (g) from Norepinephrine ([1]; Norepinephrine 10,000 nM) [g]	Vascular Tone-% of Pre-Contraction from Acetylcholine ([2]; Acetylcholine 0.1 μM) [%]	Vascular Tone-% of Pre-Contraction from Acetylcholine ([2]; Acetylcholine 1.0 μM) [%]	Vascular Tone-% of Pre-Contraction from Acetylcholine ([2]; Acetylcholine 10.0 μM) [%]	ORAC (Oxygen Radical Absorbance Capacity) index [3]
CCCCCCCCCCCCCCCC(=O)NCCO [Group 2, palmitoyl-ethanolamide]	0.20	0.40	0.70	99	94	85	–
C[C@@H]1O[C@@H](OC[C@H]2O[C@@H](Oc3c(-c4ccc(O)c(O)c4)oc4cc(O)cc(O)c4c3=O)[C@H](O)[C@@H](O)[C@@H]2O)[C@H](O)[C@H](O)[C@H]1O [Group 3, Rutin]	0.20	0.40	0.70	100	96	81	–
OCCc1ccc(O)c(O)c1 [hydroxytyrosol, 1-(2-hydroxy)ethyl-3,4-dihydroxybenzene]	–	–	–	–	–	–	40,000 μmolTE/g
